Experimental data: publication PMC3236199, “Development of Derivatives of 3, 3′-Diindolylmethane as Potent Leishmania donovani Bi-Subunit Topoisomerase IB Poisons” (PLoS ONE, 2011)

Experiments:
[1] = test system: F270L mutant topoisomerase I; test: Equilibrium (duplex oligonucleotide) cleavage assay, F270L mutant; format: biochemical, Leishmania donovani; conditions: 20 µM, with respect to cleavable complex formed without drug with wild type enzyme
Method: Cells were lysed and proteins were purified through Ni^+2-NTA agarose column (Qiagen) followed by phosphocellulose column chromatography (P11 cellulose, Whatman) as described. Finally the purified proteins LdTOP1L, LdTOP1L^F270L and LdTOP1S were stored at −70°C. Purified LdTOP1L and LdTOP1L^F270L were mixed with purified LdTOP1S separately and at a molar ratio of 1∶1 at a total protein concentration of 0.5 mg/ml in reconstitution buffer (50 mM potassium phosphate, pH 7.5, 0.5 mM DTT, 1 mM EDTA, 0.1 mM PMSF, 10% glycerol). The mixtures were dialyzed over night at 4°C and the dialyzed fractions were used for the plasmid relaxation activity.
The 25-mer oligonucleotide 1 (5′-GAAAAAAGACTT↓AGAAAAATTTTTA-3′) was 5′-end labeled with [γ^32P] ATP and annealed with oligonucleotide 2 (5′-[…]-3′) to make a duplex oligonucleotide containing a topoisomerase I binding motif as described. Cleavage assay was carried out using 20-fold molar excess of enzymes over duplex 25-mer DNA (enzymes, 0.2 µM; DNA, 10 nM). The reactions were carried out in standard assay condition in the absence or presence of drugs at 37°C for 30 min. All the reactions were stopped by addition of SDS to a final concentration of 2% (w/v), digested with 5 µl of 1 mg/ml trypsin and analyzed by 12% denaturing polyacrylamide gel followed by autoradiography. The amount of strand cleavage in the presence of drugs was determined by densitometry of the film as described.
The effect of DIM and its derivatives on L. donovani topoisomerase I was examined by plasmid DNA cleavage assay as described. The topoisomerase reaction has three general mechanistic steps: (i) binding of enzyme to the substrate DNA, (ii) single strand breakage and subsequent strand rotation through the break leading to change in linking number, and (iii) strand religation. The second step of reaction is the introduction of a single-stranded nick in the phosphodiester bond of the DNA, through which an intact strand is allowed to pass. […]

[2] = test system: DIM resistant DR50 promastigotes; test: Change in IC50 on prolonged exposure of DIM resistant promastigotes; format: cell-based; conditions: Leishmania donovani
Method: L. donovani strain AG83 and DIM resistant parasite DR50 promastigotes were grown at 22°C in M199 liquid media supplemented with 10% FBS as described. Axenic amastigotes were cultured in modified M199 medium (pH 5.3) supplemented with 10 mM sodium succinate, 40 mM HEPES and 25% FCS and maintained at 37°C with 5% CO2.The effect of drugs on the viability of Leishmania parasites was determined by direct microscopic counting using light microscope (40× objective) in a haemocytometer. The cells at the exponential phase were collected and transferred into 24-well plate (3.5×10^6 cells per well). The cells were then incubated for 12 h in the presence of various concentrations of DIM, DPDIM, DMDIM and DMODIM (1, 5, 10, 20 and 50 µM). For other experiments, 10^4 cells were taken and grown in presence of the respective derivatives for a period of 30 days. For each 5 day interval, a small amount of aliquots were taken out. After incubation the cells were centrifuged and cell pellet was washed with PBS (1×) twice and finally suspended in 1 ml PBS (1×). […] One drop of the mixture was transferred to haemocytometer and the clear (live) and blue (dead) cells were counted. The total number of viable cells in aliquot was calculated by multiplying the total number of viable cells by 2 (the dilution factor for trypan blue). […] Percentages of viable cells were calculated using the formula: [drawing 1]
Figure 2 Effect of DIM-derivatives on Leishmania parasites. Growth of L. donovani AG83 promastigotes (A) and DIM resistant promastigotes (B) were monitored in presence of increasing concentrations (1, 5, 10, 20 and 50 µM) of DIM, DPDIM, DMDIM and DMODIM for 12 h. […] Change in IC50 values after a prolong exposure to DIM derivatives (C) has been assessed as described in Materials and Methods. After every 5 day a small aliquot was taken out and number of viable promastigotes was counted for each concentration. IC50 values have been determined from them using Graph Pad Prsim ver 5.0 software and a graphical plot was generated over time. […]

[3] = test system: F270L mutant topoisomerase I; conditions: cited from earlier work

Row | SMILES | extent of cleavage [1] [%] | IC50 ([2]; 24 h) [nM] | sensitivity of F270L topoisomerase I mutant [3] | IC50 [2] [nM]
1 | Cc1[nH]c2ccccc2c1Cc1c(C)[nH]c2ccccc12 [DMDIM, 2,2′-dimethyl 3,3′-diindolyl methane] | ~53 | – | – | –
2 | COc1ccc2[nH]cc(Cc3c[nH]c4ccc(OC)cc34)c2c1 [DMODIM, 5,5′-dimethoxy 3,3′-diindolyl methane] | ~50 | 7260 | – | –
3 | c1ccc2c(Cc3c[nH]c4ccccc34)c[nH]c2c1 [DIM, 3, 3′-diindolyl methane, reference compound] | – | – | insensitive | –
4 | c1ccc(-c2[nH]c3ccccc3c2Cc2c(-c3ccccc3)[nH]c3ccccc23)cc1 [DPDIM, 2,2′-diphenyl 3,3′-diindolyl methane] | 56 | 2300 | – | 50
